The NIST ThermoML archive (doi:10.1021/je034177v)
Numbers after ± are expanded uncertainties.

Test: xn = mol fraction of the nth substance listed
Details: 101 kPa, Liquid; for speed of sound: Pulse-echo method; for mass density: Vibrating tube method

ClCCCCCCl [1,5-dichloropentane] + CCCCCCCCCCCC
Details | mass density [kg/m3] | speed of sound [m/s]
278.15 K, x1 = 0.05237 | 769.83 ± 0.35 | 1353.9 ± 1.1
278.15 K, x1 = 0.1014 | 780 ± 0.35 | 1351.3 ± 1.1
278.15 K, x1 = 0.2008 | 802.34 ± 0.36 | 1347.1 ± 1.1
278.15 K, x1 = 0.3039 | 827.99 ± 0.37 | 1344.1 ± 1.1
278.15 K, x1 = 0.3945 | 852.98 ± 0.38 | 1342.4 ± 1.1
278.15 K, x1 = 0.4983 | 884.91 ± 0.4 | 1342.1 ± 1.1
278.15 K, x1 = 0.6014 | 920.97 ± 0.42 | 1343.6 ± 1.1
278.15 K, x1 = 0.6987 | 959.17 ± 0.44 | 1347.1 ± 1.1
278.15 K, x1 = 0.7975 | 1003.24 ± 0.46 | 1353.4 ± 1.1
278.15 K, x1 = 0.9021 | 1056.96 ± 0.49 | 1363.5 ± 1.1
278.15 K, x1 = 0.9497 | 1084.25 ± 0.51 | 1369.5 ± 1.1
278.15 K, x1 = 1 | 1115.28 ± 0.52 | 1376.6 ± 1.1
283.15 K, x1 = 0.05237 | 766.19 ± 0.35 | 1334.4 ± 1.1
283.15 K, x1 = 0.1014 | 776.32 ± 0.35 | 1331.9 ± 1.1
283.15 K, x1 = 0.2008 | 798.55 ± 0.36 | 1327.8 ± 1.1
283.15 K, x1 = 0.3039 | 824.08 ± 0.37 | 1324.9 ± 1.1
283.15 K, x1 = 0.3945 | 848.97 ± 0.38 | 1323.6 ± 1.1
283.15 K, x1 = 0.4983 | 880.76 ± 0.4 | 1323.4 ± 1.1
283.15 K, x1 = 0.6014 | 916.68 ± 0.42 | 1325.1 ± 1.1
283.15 K, x1 = 0.6987 | 954.72 ± 0.44 | 1328.9 ± 1.1
283.15 K, x1 = 0.7975 | 998.63 ± 0.46 | 1335.3 ± 1.1
283.15 K, x1 = 0.9021 | 1052.15 ± 0.49 | 1345.6 ± 1.1
283.15 K, x1 = 0.9497 | 1079.35 ± 0.5 | 1351.7 ± 1.1
283.15 K, x1 = 1 | 1110.26 ± 0.52 | 1358.9 ± 1.1
288.15 K, x1 = 0.05237 | 762.54 ± 0.35 | 1314.6 ± 1
288.15 K, x1 = 0.1014 | 772.61 ± 0.35 | 1312.2 ± 1.1
288.15 K, x1 = 0.2008 | 794.74 ± 0.36 | 1308.2 ± 1.1
288.15 K, x1 = 0.3039 | 820.16 ± 0.37 | 1305.7 ± 1.1
288.15 K, x1 = 0.3945 | 844.93 ± 0.38 | 1304.4 ± 1.1
288.15 K, x1 = 0.4983 | 876.58 ± 0.4 | 1304.5 ± 1.1
288.15 K, x1 = 0.6014 | 912.36 ± 0.41 | 1306.4 ± 1.1
288.15 K, x1 = 0.6987 | 950.25 ± 0.43 | 1310.3 ± 1.1
288.15 K, x1 = 0.7975 | 993.99 ± 0.46 | 1317 ± 1.1
288.15 K, x1 = 0.9021 | 1047.3 ± 0.49 | 1327.5 ± 1.1
288.15 K, x1 = 0.9497 | 1074.4 ± 0.5 | 1333.7 ± 1.1
288.15 K, x1 = 1 | 1105.2 ± 0.52 | 1341 ± 1.1
293.15 K, x1 = 0.05237 | 758.89 ± 0.34 | 1295.1 ± 1
293.15 K, x1 = 0.1014 | 768.91 ± 0.35 | 1292.8 ± 1
293.15 K, x1 = 0.2008 | 790.94 ± 0.36 | 1289 ± 1.1
293.15 K, x1 = 0.3039 | 816.25 ± 0.37 | 1286.6 ± 1.1
293.15 K, x1 = 0.3945 | 840.9 ± 0.38 | 1285.5 ± 1.1
293.15 K, x1 = 0.4983 | 872.42 ± 0.4 | 1285.7 ± 1.1
293.15 K, x1 = 0.6014 | 908.04 ± 0.41 | 1287.9 ± 1.1
293.15 K, x1 = 0.6987 | 945.78 ± 0.43 | 1292 ± 1.1
293.15 K, x1 = 0.7975 | 989.35 ± 0.45 | 1298.8 ± 1.1
293.15 K, x1 = 0.9021 | 1042.45 ± 0.48 | 1309.5 ± 1.1
293.15 K, x1 = 0.9497 | 1069.46 ± 0.5 | 1315.8 ± 1.1
293.15 K, x1 = 1 | 1100.16 ± 0.51 | 1323.2 ± 1.1
298.15 K, x1 = 0.05237 | 755.23 ± 0.34 | 1275.6 ± 1
298.15 K, x1 = 0.1014 | 765.22 ± 0.35 | 1273.5 ± 1
298.15 K, x1 = 0.2008 | 787.14 ± 0.36 | 1269.8 ± 1.1
298.15 K, x1 = 0.3039 | 812.33 ± 0.37 | 1267.5 ± 1.1
298.15 K, x1 = 0.3945 | 836.86 ± 0.38 | 1266.6 ± 1.1
298.15 K, x1 = 0.4983 | 868.24 ± 0.39 | 1267 ± 1.1
298.15 K, x1 = 0.6014 | 903.71 ± 0.41 | 1269.3 ± 1.1
298.15 K, x1 = 0.6987 | 941.31 ± 0.43 | 1273.7 ± 1.1
298.15 K, x1 = 0.7975 | 984.72 ± 0.45 | 1280.7 ± 1.1
298.15 K, x1 = 0.9021 | 1037.61 ± 0.48 | 1291.6 ± 1.1
298.15 K, x1 = 0.9497 | 1064.51 ± 0.5 | 1298 ± 1.1
298.15 K, x1 = 1 | 1095.11 ± 0.51 | 1305.4 ± 1.1
303.15 K, x1 = 0.05237 | 751.58 ± 0.34 | 1256.4 ± 1
303.15 K, x1 = 0.1014 | 761.51 ± 0.35 | 1254.2 ± 1
303.15 K, x1 = 0.2008 | 783.32 ± 0.36 | 1250.7 ± 1
303.15 K, x1 = 0.3039 | 808.4 ± 0.37 | 1248.6 ± 1.1
303.15 K, x1 = 0.3945 | 832.82 ± 0.38 | 1247.8 ± 1.1
303.15 K, x1 = 0.4983 | 864.07 ± 0.39 | 1248.4 ± 1.1
303.15 K, x1 = 0.6014 | 899.38 ± 0.41 | 1250.9 ± 1.1
303.15 K, x1 = 0.6987 | 936.82 ± 0.43 | 1255.4 ± 1.1
303.15 K, x1 = 0.7975 | 980.06 ± 0.45 | 1262.6 ± 1.1
303.15 K, x1 = 0.9021 | 1032.76 ± 0.48 | 1273.8 ± 1.1
303.15 K, x1 = 0.9497 | 1059.56 ± 0.49 | 1280.3 ± 1.1
303.15 K, x1 = 1 | 1090.07 ± 0.51 | 1287.9 ± 1.1
308.15 K, x1 = 0.05237 | 747.91 ± 0.34 | 1237.3 ± 1
308.15 K, x1 = 0.1014 | 757.8 ± 0.35 | 1235.2 ± 1
308.15 K, x1 = 0.2008 | 779.49 ± 0.35 | 1231.8 ± 1
308.15 K, x1 = 0.3039 | 804.47 ± 0.37 | 1229.8 ± 1
308.15 K, x1 = 0.3945 | 828.76 ± 0.38 | 1229.2 ± 1.1
308.15 K, x1 = 0.4983 | 859.88 ± 0.39 | 1230 ± 1.1
308.15 K, x1 = 0.6014 | 895.05 ± 0.41 | 1232.7 ± 1.1
308.15 K, x1 = 0.6987 | 932.33 ± 0.43 | 1237.4 ± 1.1
308.15 K, x1 = 0.7975 | 975.41 ± 0.45 | 1244.8 ± 1.1
308.15 K, x1 = 0.9021 | 1027.91 ± 0.48 | 1256.1 ± 1.1
308.15 K, x1 = 0.9497 | 1054.61 ± 0.49 | 1262.7 ± 1.1
308.15 K, x1 = 1 | 1085.02 ± 0.51 | 1270.3 ± 1.1
313.15 K, x1 = 0.05237 | 744.24 ± 0.34 | 1218.4 ± 1
313.15 K, x1 = 0.1014 | 754.07 ± 0.34 | 1216.4 ± 1
313.15 K, x1 = 0.2008 | 775.66 ± 0.35 | 1213.2 ± 1
313.15 K, x1 = 0.3039 | 800.53 ± 0.36 | 1211.4 ± 1
313.15 K, x1 = 0.3945 | 824.71 ± 0.38 | 1210.9 ± 1.1
313.15 K, x1 = 0.4983 | 855.7 ± 0.39 | 1211.8 ± 1.1
313.15 K, x1 = 0.6014 | 890.7 ± 0.41 | 1214.6 ± 1.1
313.15 K, x1 = 0.6987 | 927.83 ± 0.42 | 1219.6 ± 1.1
313.15 K, x1 = 0.7975 | 970.74 ± 0.45 | 1227 ± 1.1
313.15 K, x1 = 0.9021 | 1023.05 ± 0.47 | 1238.5 ± 1.1
313.15 K, x1 = 0.9497 | 1049.66 ± 0.49 | 1245.2 ± 1.1
313.15 K, x1 = 1 | 1079.97 ± 0.5 | 1253 ± 1.1
318.15 K, x1 = 0.05237 | 740.56 ± 0.34 | 1199.7 ± 1
318.15 K, x1 = 0.1014 | 750.34 ± 0.34 | 1197.7 ± 1
318.15 K, x1 = 0.2008 | 771.82 ± 0.35 | 1194.6 ± 1
318.15 K, x1 = 0.3039 | 796.59 ± 0.36 | 1192.9 ± 1
318.15 K, x1 = 0.3945 | 820.64 ± 0.37 | 1192.5 ± 1
318.15 K, x1 = 0.4983 | 851.51 ± 0.39 | 1193.6 ± 1.1
318.15 K, x1 = 0.6014 | 886.36 ± 0.4 | 1196.7 ± 1.1
318.15 K, x1 = 0.6987 | 923.36 ± 0.42 | 1201.7 ± 1.1
318.15 K, x1 = 0.7975 | 966.1 ± 0.44 | 1209.5 ± 1.1
318.15 K, x1 = 0.9021 | 1018.21 ± 0.47 | 1221.1 ± 1.1
318.15 K, x1 = 0.9497 | 1044.74 ± 0.49 | 1227.9 ± 1.1
318.15 K, x1 = 1 | 1074.95 ± 0.5 | 1235.8 ± 1.1
323.15 K, x1 = 0.05237 | 736.88 ± 0.34 | 1181 ± 1
323.15 K, x1 = 0.1014 | 746.61 ± 0.34 | 1179.3 ± 1
323.15 K, x1 = 0.2008 | 767.98 ± 0.35 | 1176.2 ± 1
323.15 K, x1 = 0.3039 | 792.63 ± 0.36 | 1174.7 ± 1
323.15 K, x1 = 0.3945 | 816.57 ± 0.37 | 1174.4 ± 1
323.15 K, x1 = 0.4983 | 847.29 ± 0.39 | 1175.6 ± 1.1
323.15 K, x1 = 0.6014 | 882 ± 0.4 | 1178.8 ± 1.1
323.15 K, x1 = 0.6987 | 918.84 ± 0.42 | 1184.1 ± 1.1
323.15 K, x1 = 0.7975 | 961.42 ± 0.44 | 1191.9 ± 1.1
323.15 K, x1 = 0.9021 | 1013.35 ± 0.47 | 1203.8 ± 1.1
323.15 K, x1 = 0.9497 | 1039.77 ± 0.49 | 1210.6 ± 1.1
323.15 K, x1 = 1 | 1069.89 ± 0.5 | 1218.7 ± 1.1
328.15 K, x1 = 0.05237 | 733.17 ± 0.34 | 1162.7 ± 1
328.15 K, x1 = 0.1014 | 742.86 ± 0.34 | 1160.8 ± 1
328.15 K, x1 = 0.2008 | 764.14 ± 0.35 | 1157.9 ± 1
328.15 K, x1 = 0.3039 | 788.68 ± 0.36 | 1156.5 ± 1
328.15 K, x1 = 0.3945 | 812.52 ± 0.37 | 1156.4 ± 1
328.15 K, x1 = 0.4983 | 843.12 ± 0.39 | 1157.7 ± 1
328.15 K, x1 = 0.6014 | 877.69 ± 0.4 | 1161.2 ± 1.1
328.15 K, x1 = 0.6987 | 914.4 ± 0.42 | 1166.5 ± 1.1
328.15 K, x1 = 0.7975 | 956.8 ± 0.44 | 1174.5 ± 1.1
328.15 K, x1 = 0.9021 | 1008.57 ± 0.47 | 1186.6 ± 1.1
328.15 K, x1 = 0.9497 | 1034.9 ± 0.48 | 1193.5 ± 1.1
328.15 K, x1 = 1 | 1064.93 ± 0.5 | 1201.6 ± 1.1
